Measurements from US7498406B2, “Substantially cell membrane impermeable compound and use thereof” (priority 1999, dated 2009).

Key:
HMEC-1 or HUVE cells = test: GSAO-B labelling of endothelial cell surface proteins; format: cell-based, human
Protocol: FIG. 16. Identification of endothelial cell surface proteins that contain closely spaced dithiols). A The surface of HMEC-1 or HUVE cells (2×10^6 cells in 0.4 mL) was labelled with GSAO-B (100 μM) for 30 minutes at room temperature in the absence (lanes 1 and 3) or presence of DMP (400 μM) (lane 2). The endothelial cells were lysed and the lysate from both incubations was resolved on 4-15% SDS-PAGE, transferred to PVDF membrane, and blotted with streptavidin peroxidase to detect the GSAO-B label. The results represent labelling of 3×10^4 HMEC-1 (lanes 1 and 2) of HUVE cells (lane 3). The positions of Mr markers are shown at left. B Densitometry profile of the surface labelled proteins (lanes 1 and 3). The apparent Mr's of the individual proteins are indicated.
Human umbilical vein endothelial cells (HUVEC) (Wall et al., 1978) and the human dermal microvascular endothelial cell line, HMEC-1 (Ades et al., 1992), were harvested and cultured as indicated. Endothelial cells (5×10^6) were detached from culture flasks using 5 mM EDTA in PBS at 37° C., washed 3 times with PBS, resuspended in PBS containing 100 μM of GSAO-B in the absence or presence of 400 μM DMP, and incubated for 30 minutes at room temperature. The cells were washed 3 times with 1 mL of PBS, resuspended in 0.2 mL of ice cold 50 mM Tris/HCl, pH 8 buffer containing 0.5 M NaCl, 1% Triton X-100, 10 μM leupeptin, 2 mM PMSF (Sigma Chemical Company, St, Louis, Mo.), 5 mM EDTA and 10 μM aprotinin (Bayer Australia Ltd., Sydney, NSW), and sonicated on ice. On some occasions the cell lysates were incubated with streptavidin-agarose (Sigma, Castle Hill, NSW) beads (25 μL of packed beads in a total volume of 1 mL) for 60 minutes at 4° C. with rotary mixing. Bound proteins were washed 5 times with 50 mM Tris/HCl, pH 8 buffer containing 0.15 M NaCl and 0.05% Triton X-100, resolved on SDS-PAGE, transferred to PVDF membrane, and the GSAO-B-labeled proteins detected by Western blot.

PDI = test: GSAO-B labelling of PDI on the endothelial cell surface; format: cell-based; details: 100 μM GSAO-B, 30 minutes
Protocol: FIG. 17. PDI was one of the GSAO-B labelled proteins on the endothelial cell surface. HUVEC (5×10^6 cells in 0.75 mL) were labelled with GSAO-B (100 μM) for 30 minutes at 37° C. in the absence (lanes 1) or presence of DMP (400 μM) (lane 2). The cells were lysed and incubated with streptavidin-agarose beads to collect the biotin-labelled proteins. The labelled proteins were resolved on 4-15% SDS-PAGE, transferred to PVDF membrane, and blotted with anti-PDI monoclonal antibodies. The results represent labelling of 5×10^6 endothelial cells. The positions of Mr markers are shown at left.
BAE cells were labeled with GSAO-B in the absence or presence of DMP, lysed and incubated with streptavidin-agarose beads to collect the biotin-labeled proteins. The labeled proteins were eluted from the beads, resolved on SDS-PAGE, transferred to PVDF membrane, and blotted with anti-PDI polyclonal antibodies.

bovine serum albumin = bovine serum albumin (Bos taurus, UniProt P02769); test: GSAO-B labelling of purified protein, streptavidin-peroxidase blot (negative control protein); format: binding; details: 100 μM GSAO-B, 5 μM protein, 30 minutes
Protocol: (§1) FIG. 14. Interaction of GSAO-B with PDI and thioredoxin. A Structure of GSAO-B. B Purified human recombinant PDI (5 μM), human recombinant thioredoxin (5 μM) or bovine serum albumin (5 ? M) was incubated with dithiothreitol (10 μM) for 60 minutes at room temperature to ensure that the active site disulfide(s) of PDI and thioredoxin were in the reduced dithiol form. GSAO-B (100 ? M) or GSAO-B and DMP (400 μM) was then added and the reactions incubated for 30 minutes at room temperature. The labelled PDI (lanes 1 and 2), thioredoxin (lanes 3 and 4) and albumin (lane 5) (75 pmoles) was resolved on […] SDS-PAGE, transferred to PVDF membrane, and blotted with streptavidin-peroxidase to detect the GSAO-B label. The positions of Mr markers are shown at left.
Human recombinant PDI and thioredoxin bound GSAO-B (FIG. 14). Recombinant human protein disulfide isomerase (PDI) was produced in E. coli and purified according to Jiang et al. (1999). […] Proteins were detected by Western blot using an anti-PDI murine monoclonal antibody (Jiang et al., 1999) (used at 2 μg per mL). […] Chemiluminescence films were analysed using a GS-700 Imaging Densitometer and Multi-Analyst software (Bio-Rad, Hercules, Calif.).

human recombinant PDI = biological target: T1, human recombinant PDI (Homo sapiens, UniProt P07237); test: GSAO-B labelling of purified protein, streptavidin-peroxidase blot; format: binding
T1 construct: made in house; host or cells: E. coli
Protocol: as §1
(§2) Human recombinant PDI and thioredoxin bound GSAO-B (FIG. 14). Recombinant human protein disulfide isomerase (PDI) was produced in E. coli and purified according to Jiang et al. (1999). In the experiment, purified PDI, thioredoxin or albumin as negative control were incubated with a 2-fold molar excess of dithiothreitol for 60 minutes to ensure that the active site disulfides of PDI and thioredoxin were in the reduced dithiol state. The proteins were then incubated with GSAO-B or GSAO-B and a 4-fold molar excess of DMP for 30 minutes. Equivalent moles of the labeled proteins were resolved on SDS-PAGE, transferred to PVDF membrane, and blotted with streptavidin-peroxidase to detect the GSAO-B label. Samples were resolved on 4-15% SDS-PAGE under non-reducing conditions (Laemmli, 1970) and transferred to PVDF membrane. Proteins were detected by Western blot using an anti-PDI murine monoclonal antibody (Jiang et al., 1999) (used at 2 μg per mL). Rabbit anti-mouse horseradish peroxidase conjugated antibodies (Dako Corporation, Carpinteria, Calif.) were used at 1:2000 dilution. GSAO-B-labeled proteins were blotted with streptavidin peroxidase (Amersham, Sydney, NSW) used at 1:1000 dilution. […] Chemiluminescence films were analysed using a GS-700 Imaging Densitometer and Multi-Analyst software (Bio-Rad, Hercules, Calif.).

Thioredoxin = biological target: T2, Thioredoxin (Homo sapiens, UniProt P10599); test: as above; format: binding; details: 100 μM GSAO-B, 5 μM protein, 30 minutes
T2 construct: purchased American Diagnostica, Greenwich, Conn; host or cells: E. coli
Protocol: as §1, §2

cell surface CD4 = biological target: T3, cell surface CD4 (Homo sapiens, UniProt P01730); test: Labelling of cell surface CD4 on CEM-T4 cells; format: cell-based; details: 100 μM, 30 min
T3 construct: host or cells: CEM-T4
Protocol: FIG. 32. Labelling of cell surface CD4 with GSAO-B. CEM-T4 were labelled with either MPB or GSAO-B. The biotin-labelled proteins were collected on streptavidin-agarose beads, resolved on 5-15% SDS-PAGE and Western blotted using Leu3a monoclonal antibody. Lane 1 is MPB-labelled CEM-T4 CD4 and lane 2 is GSAO-B-labelled CEM-T4 CD04. Lane 3 is a control experiment where GSAO-B was incubated with CEM-T4 cells in the presence of 400 μM DMP. Biotin-labelled proteins were from 2×10^6 cells. The positions of Mr markers in kDa are shown at left.
CEM-T4 cells were obtained from the NIH AIDS Research and Reference Reagent Program, Rockville, Mass., CEM-T4 (1 mL of 5×10^6 per mL in Hanks balanced salt solution) were incubated with either sulfosuccinimidobiotin (SSB), 3-(N-maleimidylpropionyl)biocytin (MPB), or GSAO-B (100 μM) for 30 min at room temperature SSB was from Pierce, Rockford, Ill. while MPB was from Molecular Probes, Eugene, Oreg.. Unreacted SSB was quenched with glycine (200 μM), while unreacted MPB was quenched with reduced glutathione (GSH, 200 μM) for 30 min at room temperature. The labelled cells were washed twice with PBS and sonicated in 1 mL of 50 mM Tris-HCl, 0.5 M NaCl, 1% (v/v) Triton X-100, 10 μM leupeptin, 10 μM aprotinin, 2 mM phenylmethylsulfonyl fluoride, 5 mM EDTA, pH 8.0 buffer at 4° C. […]
Labelled CD4 was detected by blotting with the Leu3a monoclonal antibody (FIG. 32).

[1] = Stability of the trivalent arsenicals towards oxidation; format: physicochemical; details: slowed by removal of O2, lower pH or glycine
Text: This oxidation can be slowed in three ways; removal of dissolved O2 from solutions containing the arsenoxides, lowering the pH of these solutions, or by addition of glycine to the solutions. Glycine is routinely used to prevent oxidation of the stock solutions of the trivalent organoarsenicals. Similar to the reaction between 2,3-dimercaptopropanol and R—As(OH)2 in which a 5-membered dithioarsonite (XI) is formed, reaction of glycine with R—As(OH)2 is thought to give a 5-membered cyclic 1,3,2-oxazarsolidin-5-one (XII).

HIVIIIB = HIVIIIB entry into / infection of A3.01 cells, p24 antigen; format: cell-based, HIV; details: 100 μM, 30 minutes before virus
Protocol: FIG. 33. […] Cells were washed and incubated in complete medium at 5% CO2 and 37° C. for up to 10 days. […] B Concentration dependence of GSAO. […] Cells were washed, incubated in complete medium at 5% CO2 and 37° C. for 3 days and the conditioned medium collected and assayed for p24 antigen.
FIG. 34. Inhibition of HIVIIIB infection of A3.01 cells by GSAO.
A3.01 human T cells were exposed to GSAO for 30 minutes and then to HTLVIIIB virus for 2 hours after which the cells were washed and then cultured for up to 10 days. HTLVIIIB and A3.01 cells were obtained from the NIH AIDS Research and Reference Reagent Program, Rockville, Mass. Virus stocks were made and infectivity titer determined using A3.01 cells and the p24 antigen assay (Coulter, Miami, Fla.). A3.01 cells were cultured in RPMI medium containing 10% fetal calf serum. […] Cell numbers and cell viability were determined at the times specified by staining cells with trypan blue and counting using a Neubauer haemacytometer. Cell viability was measured as a percentage of live cells to total cells.

T1 sequence (P07237 18-508): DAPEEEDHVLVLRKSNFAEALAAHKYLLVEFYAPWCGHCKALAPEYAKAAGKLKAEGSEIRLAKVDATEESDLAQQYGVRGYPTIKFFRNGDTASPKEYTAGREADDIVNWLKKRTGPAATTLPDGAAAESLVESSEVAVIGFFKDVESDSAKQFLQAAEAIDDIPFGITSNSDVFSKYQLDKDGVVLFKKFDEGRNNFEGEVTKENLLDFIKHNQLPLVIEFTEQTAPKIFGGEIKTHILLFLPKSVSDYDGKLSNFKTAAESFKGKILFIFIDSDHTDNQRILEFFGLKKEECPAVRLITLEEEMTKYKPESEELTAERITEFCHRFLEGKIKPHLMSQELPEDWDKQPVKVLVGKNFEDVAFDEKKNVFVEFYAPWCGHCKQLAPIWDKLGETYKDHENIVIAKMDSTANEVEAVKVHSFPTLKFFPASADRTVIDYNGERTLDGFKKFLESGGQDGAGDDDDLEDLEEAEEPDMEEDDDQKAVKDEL
Chain of bovine serum albumin (P02769 25-607): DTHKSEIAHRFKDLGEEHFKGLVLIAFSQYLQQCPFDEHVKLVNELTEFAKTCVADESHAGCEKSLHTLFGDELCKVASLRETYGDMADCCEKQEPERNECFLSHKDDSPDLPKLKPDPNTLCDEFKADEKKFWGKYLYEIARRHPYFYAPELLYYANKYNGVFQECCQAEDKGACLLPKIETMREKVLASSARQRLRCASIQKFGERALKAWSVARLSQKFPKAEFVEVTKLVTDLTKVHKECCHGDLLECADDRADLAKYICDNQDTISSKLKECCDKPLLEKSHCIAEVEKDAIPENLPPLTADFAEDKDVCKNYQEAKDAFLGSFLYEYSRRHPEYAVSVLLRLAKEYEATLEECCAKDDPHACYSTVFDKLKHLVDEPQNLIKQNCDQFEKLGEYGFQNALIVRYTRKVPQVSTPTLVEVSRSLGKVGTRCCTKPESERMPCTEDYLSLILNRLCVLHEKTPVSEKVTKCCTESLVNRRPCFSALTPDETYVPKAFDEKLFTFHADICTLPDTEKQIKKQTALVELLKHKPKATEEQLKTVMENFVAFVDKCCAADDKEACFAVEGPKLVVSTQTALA
T2 sequence (P10599 whole entry): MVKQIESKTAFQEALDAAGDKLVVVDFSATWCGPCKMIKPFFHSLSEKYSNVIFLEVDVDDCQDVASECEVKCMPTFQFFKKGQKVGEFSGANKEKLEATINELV

4-(N-(S-(N-(6-(N-(6-(N-(biotinoyl)amino)hexanoyl)amino)hexanoyl)glutathionyl)acetyl)amino)phenylarsenoxide [GSAO-B]
incorporation in the presence of DMP (HMEC-1 or HUVE cells; 100 μM GSAO-B with 400 μM DMP): effectively no incorporation of GSAO-B in the presence of DMP | proteins on the endothelial cell surface that bind the compound (HMEC-1 or HUVE cells; 100 μM, 30 minutes): approximately ten proteins | labelling of cell surface PDI (PDI): PDI was one of the proteins on the endothelial cell surface that incorporated GSAO-B | incorporation of GSAO-B label (bovine serum albumin): albumin did not | incorporation of GSAO-B label (human recombinant PDI; 100 μM GSAO-B, 5 μM protein, 30 minutes): incorporated GSAO-B | density of labeling of PDI relative to thioredoxin (human recombinant PDI; equivalent moles of protein): approximately twice that of thioredoxin | incorporation of GSAO-B label (Thioredoxin): incorporated GSAO-B | labelling of T cell surface CD4 (cell surface CD4): incorporated GSAO-B

O=[As]c1ccc(NC(=O)CBr)cc1 (stereo not shown) [BRAO, 4-(N-(bromoacetyl)amino)-phenylarsenoxide]
stability of solutions towards oxidation [1]: deactivated over time by oxidation

O=C(CCCC[C@@H]1SC[C@@H]2NC(=O)N[C@@H]21)NCCCC[C@H](NC(=O)CCN1C(=O)C=CC1=O)C(=O)O [MPB, 3-(N-maleimidylpropionyl)biocytin, reference compound]
inhibition of HIVIIIB entry (HIVIIIB): Inhibition of HIVIIIB entry
